Measurements taken from the supplement of paper PMC10307832.

Experiments:
Test in all cases: relative viability (nuclei count vs DMSO), 5 days (fraction); higher = more cells survive
[1] = compound: CC1=C(CC(=O)O)c2cc(F)ccc2/C1=C\c1ccc([S+](C)[O-])cc1 [Sulindac] + COc1cc2c(Oc3ccc(NC(=O)C4(C(=O)Nc5ccc(F)cc5)CC4)cc3F)ccnc2cc1OCCCN1CCOCC1 [Foretinib] (partner 0.25 µM)
Outline: (§1)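 For relative viability, nuclei counts in treated wells were divided by those in vehicle wells. Lung cancer cell lines had been pin-tool dosed in 1536-well plates the day after seeding and cultured for 5 days, then fixed and stained in one step (final 0.05% Triton X-100, 1% formaldehyde, 1 ug/ml Hoechst) and imaged at 4×. Doses were one drug alone or a fixed anchor-drug dose plus five library-drug doses (not always all listed) in √10 steps, and values are duplicate-plate medians.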

[2] = compound: CN[C@@H]1C[C@H]2O[C@@](C)([C@@H]1OC)n1c3ccccc3c3c4c(c5c6ccccc6n2c5c31)C(=O)NC4 [Staurosporine] + Nc1nc2[nH]cc(CCc3ccc(C(=O)N[C@@H](CCC(=O)O)C(=O)O)cc3)c2c(=O)[nH]1 [Pemetrexed] (partner 0.2 µM)
Outline: as §1

[3] = compound: O=c1[nH]cc(F)c(=O)[nH]1 [5-Fluorouracil] + Cc1cc(Nc2cc(N3CCN(C)CC3)nc(Sc3ccc(NC(=O)C4CC4)cc3)n2)n[nH]1 [Tozasertib] (partner 0.1 µM)
Outline: as §1

[4] = compound: O=c1[nH]cc(F)c(=O)[nH]1 [5-Fluorouracil] + Nc1ncn([C@H]2C[C@H](O)[C@@H](CO)O2)c(=O)n1 [Decitabine] (partner 2 µM)
Outline: as §1

For NCI-H520, the relative viability ([1]; first compound 0.08 µM) was 0.876, the relative viability ([1]; first compound 0.253 µM) was 0.822 and the relative viability ([1]; first compound 2.53 µM) was 0.678. The relative viability ([1]; first compound 8 µM) was 1.34, the relative viability ([2]; first compound 0.005 µM) was 0.579 and the relative viability ([2]; first compound 0.01581 µM) was 0.394. The relative viability ([2]; first compound 0.05 µM) was 0.295, the relative viability ([2]; first compound 0.1581 µM) was 0.181 and the relative viability ([2]; first compound 0.5 µM) was 0.148. For the same cell line, the relative viability ([3]; first compound 0.2 µM) was 0.484, the relative viability ([3]; first compound 0.6325 µM) was 0.438 and the relative viability ([3]; first compound 2 µM) was 0.329. The relative viability ([4]; first compound 0.02 µM) was 0.505, the relative viability ([4]; first compound 0.2 µM) was 0.556 and the relative viability ([4]; first compound 0.6325 µM) was 0.479. The relative viability ([4]; first compound 2 µM) was 0.552.
